Data as given in patent US6548085B1, “Insecticidal compositions and method of controlling insect pests using same” (Woodstream Corporation, priority 1998, dated 2003).

Experiments:
Type in all cases: in vivo
Black Ants = test: Direct spray kill time test on black ants; conditions: aqueous solution, sprayed 2 seconds, entry of 300 = no deaths during that time
Text: (§1) To determine the effectiveness of an essential oil/sodium lauryl sulfate aerosol spray according to this invention as an insecticide when applied directly by a conventional pump spray on German cockroaches, American cockroaches and various ant species.
(§2) Insects shall be healthy and undeformed. Only adult male and female insects shall be used for testing purposes. The insects shall be contained in a 21.5×15.5×5.5 inch testing arena.
(§3) 1. Gather 10 adult insects, 5 males and 5 females.
(§4) 2. Place 1 insect into the testing arena.
(§5) 3. Select spray to be tested. Spray cockroaches for 3 seconds, ants for 2 seconds.
(§6) 4. Record kill time in seconds.
(§7) 5. Wipe away any spray residue before beginning another test.
(§8) 6. Repeat steps 2, 3, 4 and 5 until all test insects are used.
(§9) 7. Record date of testing, type of test material used, type of insect used, kill time in seconds, and whether or not test specimen meets standard.
(§10) Following this protocol, aqueous solutions of selected essential oils were prepared at different concentrations, both with and without the addition of sodium lauryl sulfate, and tested for their insecticidal activity (kill time in seconds) against German and American cockroaches and black or pavement ants. The results are tabulated below and illustrated graphically in the accompanying drawings.
(§11) ^3 The tests shown in the Tables utilized the active ingredients in an aqueous solution dispensed from a standard pump-type sprayer. Shorter kill times result when the insecticide is aerosolized, i.e., dispensed from a pressurized aerosol can using a propellant such as carbon dioxide.

Pavement Ants = test: Direct spray kill time test on pavement ants; conditions: aqueous solution, pump sprayer, sprayed 2 seconds, entry of 300 = no deaths during that time
Text: as §1, §2, §3, §4, §5, §6, §7, §8, §9, §10, §11

German cockroaches = test: Direct spray kill time test on German cockroaches; conditions: aqueous solution, sprayed 3 seconds, entry of 300 = no deaths during that time
Text: as §1, §2, §3, §4, §5, §6, §7, §8, §9, §10, §11

American cockroaches = test: Direct spray kill time test on American cockroaches; conditions: aqueous solution, sprayed 3 seconds, entry of 300 = no deaths during that time
Text: as §1, §2, §3, §4, §5, §6, §7, §8, §9, §10, §11

[1] = cinnamon oil series, pump sprayer
[2] = cornmint oil series, standard pump-type sprayer
[3] = orange sweet oil series, pump sprayer
[4] = citronella oil series, pump sprayer
[5] = grapefruit oil series, pump sprayer
[6] = peppermint oil series, pump sprayer
[7] = tangerine oil series, pump sprayer

CCCCCCCCCCCCOS(=O)(=O)[O-].[Na+] [100% SLS, sodium lauryl sulfate]
Kill Time (Black Ants; [1]): > 300 s | Kill Time (Black Ants; [2]): > 300 s | Kill Time (Black Ants; [3]): > 300 s | Kill Time (Pavement Ants; citronella oil series): > 300 s | Kill Time (Pavement Ants; grapefruit oil series): > 300 s | Kill Time (Pavement Ants; lemon oil series): > 300 s | Kill Time (Pavement Ants; lime oil series): > 300 s | Kill Time (Pavement Ants; peppermint oil series): > 300 s | Kill Time (Pavement Ants; tangerine oil series): > 300 s | Kill Time (German cockroaches; [1]): > 300 s | Kill Time (German cockroaches; [4]): > 300 s | Kill Time (German cockroaches; [2]): > 300^1 Seconds | Kill Time (German cockroaches; [5]): > 300 s | Kill Time (German cockroaches; lemon oil series, pump sprayer): > 300 s | Kill Time (German cockroaches; lime oil series, pump sprayer): > 300 s | Kill Time (German cockroaches; orange sweet oil series, pump sprayer, repetitions of 10% OSO mixture not performed): > 300 s | Kill Time (German cockroaches; [6]): > 300 s | Kill Time (German cockroaches; [7]): > 300 s | Kill Time (American cockroaches; [1]): > 300 s | Kill Time (American cockroaches; [4]): > 300 s | Kill Time (American cockroaches; [2]): > 300 s | Kill Time (American cockroaches; [5]): > 300 s | Kill Time (American cockroaches; lemon oil series, pump sprayer): > 300 s | Kill Time (American cockroaches; lime oil series, pump sprayer): > 300 s | Kill Time (American cockroaches; [3]): > 300 s | Kill Time (American cockroaches; [6]): > 300 s | Kill Time (American cockroaches; [7]): > 300 s
